# Assay results reported in patent publication US20230148214A1, “INDAZOLES AND AZAINDAZOLES AS LRRK2 INHIBITORS” (ESCAPE Bio, Inc., priority 2020, published 2023).
# What was measured:
# LRRK2 WT = biological target: T1, LRRK2 WT (Homo sapiens, UniProt Q5S007); assay: LRRK2 Kinase Activity Assay (LanthaScreen TR-FRET), wild type; format: biochemical; conditions: recombinant wild type LRRK2, 25 μM ATP, 400 nM LRRKtide, 60 min; class symbols
# T1 construct: purchased Life Technologies PR8604B
# Summary of the method: (§1)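 Recombinant wild-type or G2019S LRRK2 incubated with fluorescein-labeled LRRKtide (ERM-based) peptide, ATP and serially diluted compound for 60 min at room temperature.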
# LRRK2 G2019S = biological target: T2, LRRK2 G2019S (Homo sapiens, UniProt Q5S007, G2019S); assay: LRRK2 Kinase Activity Assay (LanthaScreen TR-FRET), G2019S; format: biochemical; conditions: recombinant G2019S-LRRK2, 25 μM ATP, 400 nM LRRKtide, 60 min; class symbols
# T2 construct: purchased Life Technologies PV4881
# T2 sequence (Q5S007 whole entry G2019S): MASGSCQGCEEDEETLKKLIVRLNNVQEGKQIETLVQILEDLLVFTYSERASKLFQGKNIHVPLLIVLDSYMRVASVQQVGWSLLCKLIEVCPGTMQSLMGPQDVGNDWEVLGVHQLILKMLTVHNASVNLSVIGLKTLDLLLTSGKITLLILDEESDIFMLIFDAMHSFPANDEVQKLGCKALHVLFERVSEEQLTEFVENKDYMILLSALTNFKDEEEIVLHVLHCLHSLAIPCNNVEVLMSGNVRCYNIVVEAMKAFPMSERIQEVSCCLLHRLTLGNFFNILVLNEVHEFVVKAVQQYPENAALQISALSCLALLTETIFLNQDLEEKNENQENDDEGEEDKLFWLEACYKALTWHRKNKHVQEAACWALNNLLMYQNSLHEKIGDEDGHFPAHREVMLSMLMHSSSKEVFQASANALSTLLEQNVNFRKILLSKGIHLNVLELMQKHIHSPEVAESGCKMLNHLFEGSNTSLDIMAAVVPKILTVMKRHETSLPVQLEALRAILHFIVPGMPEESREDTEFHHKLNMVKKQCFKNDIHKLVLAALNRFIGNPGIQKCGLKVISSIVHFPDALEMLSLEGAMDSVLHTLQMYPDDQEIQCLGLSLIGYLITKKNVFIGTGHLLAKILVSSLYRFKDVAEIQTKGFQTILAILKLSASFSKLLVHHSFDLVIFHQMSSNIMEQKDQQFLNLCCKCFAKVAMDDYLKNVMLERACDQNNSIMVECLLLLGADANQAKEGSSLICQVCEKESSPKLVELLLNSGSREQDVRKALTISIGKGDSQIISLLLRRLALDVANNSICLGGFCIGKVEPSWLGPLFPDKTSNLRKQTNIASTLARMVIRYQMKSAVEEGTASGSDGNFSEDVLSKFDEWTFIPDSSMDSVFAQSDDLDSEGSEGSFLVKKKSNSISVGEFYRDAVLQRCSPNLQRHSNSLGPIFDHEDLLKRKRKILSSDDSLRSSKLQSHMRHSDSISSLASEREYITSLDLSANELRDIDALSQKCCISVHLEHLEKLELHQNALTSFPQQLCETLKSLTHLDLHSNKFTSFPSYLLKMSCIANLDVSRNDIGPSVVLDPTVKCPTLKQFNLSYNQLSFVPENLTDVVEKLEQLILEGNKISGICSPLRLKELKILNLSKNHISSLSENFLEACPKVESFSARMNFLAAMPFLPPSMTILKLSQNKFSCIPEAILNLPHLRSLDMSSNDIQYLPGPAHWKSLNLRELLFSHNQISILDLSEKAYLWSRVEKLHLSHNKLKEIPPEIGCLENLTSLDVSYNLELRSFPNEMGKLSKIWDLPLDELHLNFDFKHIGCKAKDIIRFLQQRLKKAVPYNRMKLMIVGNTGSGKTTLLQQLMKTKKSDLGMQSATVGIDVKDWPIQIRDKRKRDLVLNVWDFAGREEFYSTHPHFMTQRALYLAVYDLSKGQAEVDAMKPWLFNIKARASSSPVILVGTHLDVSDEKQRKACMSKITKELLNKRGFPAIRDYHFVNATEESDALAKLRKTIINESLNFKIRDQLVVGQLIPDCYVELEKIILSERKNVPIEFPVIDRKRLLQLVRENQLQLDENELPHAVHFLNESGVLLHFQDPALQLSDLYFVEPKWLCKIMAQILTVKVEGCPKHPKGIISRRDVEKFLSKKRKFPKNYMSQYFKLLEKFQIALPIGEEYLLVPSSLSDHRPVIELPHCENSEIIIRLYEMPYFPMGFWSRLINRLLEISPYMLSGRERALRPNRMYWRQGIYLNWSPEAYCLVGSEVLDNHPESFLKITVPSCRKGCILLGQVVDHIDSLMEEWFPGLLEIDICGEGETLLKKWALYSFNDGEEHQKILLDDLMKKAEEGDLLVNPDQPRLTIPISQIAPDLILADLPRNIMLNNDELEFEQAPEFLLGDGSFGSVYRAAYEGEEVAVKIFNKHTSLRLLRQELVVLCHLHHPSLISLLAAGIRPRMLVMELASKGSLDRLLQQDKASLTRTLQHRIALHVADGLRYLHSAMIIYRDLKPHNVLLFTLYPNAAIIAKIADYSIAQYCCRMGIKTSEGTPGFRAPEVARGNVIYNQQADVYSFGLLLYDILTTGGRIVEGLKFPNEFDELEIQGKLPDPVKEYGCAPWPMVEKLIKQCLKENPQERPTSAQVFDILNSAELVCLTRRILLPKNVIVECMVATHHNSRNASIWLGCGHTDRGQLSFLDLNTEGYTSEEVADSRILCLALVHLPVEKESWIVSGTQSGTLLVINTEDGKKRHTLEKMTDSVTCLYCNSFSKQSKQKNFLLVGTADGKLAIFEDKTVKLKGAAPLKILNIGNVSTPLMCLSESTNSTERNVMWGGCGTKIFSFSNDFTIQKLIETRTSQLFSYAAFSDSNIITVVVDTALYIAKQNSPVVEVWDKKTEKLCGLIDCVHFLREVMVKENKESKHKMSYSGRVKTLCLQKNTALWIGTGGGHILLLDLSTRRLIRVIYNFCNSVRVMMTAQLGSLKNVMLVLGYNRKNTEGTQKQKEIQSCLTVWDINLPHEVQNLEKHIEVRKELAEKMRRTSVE
# Summary of the method: as §1
# T1 sequence (Q5S007 whole entry): as the sequence (Q5S007 whole entry G2019S) above, with S2019G counted along it
Compound,IC50 (LRRK2 WT),IC50 (LRRK2 G2019S)
"N#Cc1ccc2c(c1)CCC[C@@H]2Nc1ccc2[nH]nc(I)c2c1 (single isomer, unassigned) [Example 15, enantiomer 1, 5-((3-Iodo-1H-indazol-5-yl)amino)-5,6,7,8-tetrahydronaphthalene-2-carbonitrile]",100 to 1000 nM,< 100 nM
"N#Cc1ccc2c(c1)CCC[C@@H]2Nc1ccc2[nH]nc(I)c2c1 (single isomer, unassigned) [Example 15, enantiomer 2, 5-((3-Iodo-1H-indazol-5-yl)amino)-5,6,7,8-tetrahydronaphthalene-2-carbonitrile]",1000 to 10000 nM,100 to 1000 nM
"N#Cc1cnc2c(c1)CCC[C@@H]2Oc1ccc2[nH]nc(-c3cnco3)c2c1 (single isomer, unassigned) [Example 16, enantiomer 1, 8-((3-(Oxazol-5-yl)-1H-indazol-5-yl)oxy)-5,6,7,8-tetrahydroquinoline-3-carbonitrile]",< 100 nM,< 100 nM
"N#Cc1ccc2c(c1)CCC[C@@H]2Oc1ccc2[nH]nc(-c3cnoc3)c2c1 (single isomer, unassigned) [Example 17, enantiomer 1, 5-((3-(Isoxazol-4-yl)-1H-indazol-5-yl)oxy)-5,6,7,8-tetrahydronaphthalene-2-carbonitrile]",< 100 nM,< 100 nM
"N#Cc1ccc2c(c1)CCC[C@@H]2Oc1ccc2[nH]nc(-c3cnoc3)c2c1 (single isomer, unassigned) [Example 17, enantiomer 2, 5-((3-(Isoxazol-4-yl)-1H-indazol-5-yl)oxy)-5,6,7,8-tetrahydronaphthalene-2-carbonitrile]",100 to 1000 nM,< 100 nM
"Cc1n[nH]c2ccc(O[C@H]3CCCc4cc(C#N)ccc43)cc12 (single isomer, unassigned) [Example 19, enantiomer 1, 5-((3-Methyl-1H-indazol-5-yl)oxy)-5,6,7,8-tetrahydronaphthalene-2-carbonitrile]",100 to 1000 nM,100 to 1000 nM
"Cc1n[nH]c2ccc(O[C@H]3CCCc4cc(C#N)ccc43)cc12 (single isomer, unassigned) [Example 19, enantiomer 2, 5-((3-Methyl-1H-indazol-5-yl)oxy)-5,6,7,8-tetrahydronaphthalene-2-carbonitrile]",100 to 1000 nM,< 100 nM
"N#Cc1ccc2c(c1)CC[C@@H]2Oc1cc2c(-c3cnco3)n[nH]c2cn1 (single isomer, unassigned) [Example 20, enantiomer 1, 1-((3-(Oxazol-5-yl)-1H-pyrazolo[3,4-c]pyridin-5-yl)oxy)-2,3-dihydro-1H-indene-5-carbonitrile]",< 100 nM,< 100 nM
"N#Cc1ccc2c(c1)CC[C@@H]2Oc1cc2c(-c3cnco3)n[nH]c2cn1 (single isomer, unassigned) [Example 20, enantiomer 2, 1-((3-(Oxazol-5-yl)-1H-pyrazolo[3,4-c]pyridin-5-yl)oxy)-2,3-dihydro-1H-indene-5-carbonitrile]",100 to 1000 nM,< 100 nM
"N#Cc1ccc2c(c1)CC[C@H]2Oc1ccc2[nH]nc(-c3cnco3)c2n1 (single isomer, unassigned) [Example 31, enantiomer 1, 1-((3-(Oxazol-5-yl)-1H-pyrazolo[4,3-b]pyridin-5-yl)oxy)-2,3-dihydro-1H-indene-5-carbonitrile]",< 100 nM,< 100 nM
"N#Cc1ccc2c(c1)CCC[C@H]2Oc1cc2c(-c3cnco3)n[nH]c2cn1 (single isomer, unassigned) [Example 32, enantiomer 1, 5-((3-(Oxazol-5-yl)-1H-pyrazolo[3,4-c]pyridin-5-yl)oxy)-5,6,7,8-tetrahydronaphthalene-2-carbonitrile]",1000 to 10000 nM,100 to 1000 nM
"N#Cc1ccc2c(c1)CCC[C@H]2Oc1cc2c(-c3cnco3)n[nH]c2cn1 (single isomer, unassigned) [Example 32, enantiomer 2, 5-((3-(Oxazol-5-yl)-1H-pyrazolo[3,4-c]pyridin-5-yl)oxy)-5,6,7,8-tetrahydronaphthalene-2-carbonitrile]",< 100 nM,< 100 nM

# Second part, the compound after the results:
IC50 (LRRK2 WT),IC50 (LRRK2 G2019S),Compound
< 100 nM,< 100 nM,"N#Cc1ccc2c(c1)CCC[C@@H]2Oc1ccc2[nH]nc(-c3cnco3)c2c1 (single isomer, unassigned) [Example 18, enantiomer 1, 5-((3-(Oxazol-5-yl)-1H-indazol-5-yl)oxy)-5,6,7,8-tetrahydronaphthalene-2-carbonitrile]"
< 100 nM,< 100 nM,"N#Cc1ccc2c(c1)CC[C@@H]2Nc1cc2c(-c3cnco3)n[nH]c2cn1 (single isomer, unassigned) [Example 21, enantiomer 1, 1-((3-(Oxazol-5-yl)-1H-pyrazolo[3,4-c]pyridin-5-yl)amino)-2,3-dihydro-1H-indene-5-carbonitrile]"
100 to 1000 nM,< 100 nM,"N#Cc1ccc2c(c1)CC[C@@H]2Nc1cc2c(-c3cnco3)n[nH]c2cn1 (single isomer, unassigned) [Example 21, enantiomer 2, 1-((3-(Oxazol-5-yl)-1H-pyrazolo[3,4-c]pyridin-5-yl)amino)-2,3-dihydro-1H-indene-5-carbonitrile]"
< 100 nM,< 100 nM,"Cc1c(C#N)ccc2c1CC[C@@H]2Oc1ccc2[nH]nc(-c3cnco3)c2c1 (single isomer, unassigned) [Example 22, enantiomer 1, 4-Methyl-1-((3-(oxazol-5-yl)-1H-indazol-5-yl)oxy)-2,3-dihydro-1H-indene-5-carbonitrile]"
< 100 nM,< 100 nM,"N#Cc1cc2c(cc1F)[C@@H](Oc1ccc3[nH]nc(-c4cnco4)c3c1)CC2 (single isomer, unassigned) [Example 23, enantiomer 1, 6-Fluoro-1-((3-(oxazol-5-yl)-1H-indazol-5-yl)oxy)-2,3-dihydro-1H-indene-5-carbonitrile]"
< 100 nM,< 100 nM,"N#Cc1ccc2c(c1F)CC[C@@H]2Oc1ccc2[nH]nc(-c3cnco3)c2c1 (single isomer, unassigned) [Example 24, enantiomer 1, 4-Fluoro-1-((3-(oxazol-5-yl)-1H-indazol-5-yl)oxy)-2,3-dihydro-1H-indene-5-carbonitrile]"
< 100 nM,< 100 nM,"N#Cc1cc2c(cc1F)[C@@H](Nc1ccc3[nH]nc(-c4cnco4)c3c1)CC2 (single isomer, unassigned) [Example 25, enantiomer 1, 6-Fluoro-1-((3-(oxazol-5-yl)-1H-indazol-5-yl)amino)-2,3-dihydro-1H-indene-5-carbonitrile]"
< 100 nM,< 100 nM,"N#Cc1ccc2c(c1F)CC[C@@H]2Nc1ccc2[nH]nc(-c3cnco3)c2c1 (single isomer, unassigned) [Example 26, enantiomer 1, 4-Fluoro-1-((3-(oxazol-5-yl)-1H-indazol-5-yl)amino)-2,3-dihydro-1H-indene-5-carbonitrile]"
< 100 nM,< 100 nM,"Cc1c(C#N)ccc2c1CC[C@@H]2Nc1ccc2[nH]nc(-c3cnco3)c2c1 (single isomer, unassigned) [Example 27, enantiomer 1, 4-methyl-1-((3-(oxazol-5-yl)-1H-indazol-5-yl)amino)-2,3-dihydro-1H-indene-5-carbonitrile]"
100 to 1000 nM,< 100 nM,"Cc1cc2c(cc1C#N)CC[C@@H]2Nc1ccc2[nH]nc(-c3cnco3)c2c1 (single isomer, unassigned) [Example 28, enantiomer 1, 6-Methyl-1-((3-(oxazol-5-yl)-1H-indazol-5-yl)amino)-2,3-dihydro-1H-indene-5-carbonitrile]"
< 100 nM,< 100 nM,"Cc1cc2c(cc1C#N)CC[C@H]2Oc1ccc2[nH]nc(-c3cnco3)c2c1 (single isomer, unassigned) [Example 29, enantiomer 1, 6-Methyl-1-((3-(oxazol-5-yl)-1H-indazol-5-yl)oxy)-2,3-dihydro-1H-indene-5-carbonitrile]"
< 100 nM,< 100 nM,"N#Cc1ccc2c(c1)CC[C@H]2Nc1ccc2[nH]nc(-c3cnco3)c2n1 (single isomer, unassigned) [Example 30, enantiomer 1, 1-((3-(Oxazol-5-yl)-1H-pyrazolo[4,3-b]pyridin-5-yl)amino)-2,3-dihydro-1H-indene-5-carbonitrile]"
100 to 1000 nM,< 100 nM,"N#Cc1ccc2c(c1)CC[C@H]2Nc1ccc2[nH]nc(-c3cnco3)c2n1 (single isomer, unassigned) [Example 30, enantiomer 2, 1-((3-(Oxazol-5-yl)-1H-pyrazolo[4,3-b]pyridin-5-yl)amino)-2,3-dihydro-1H-indene-5-carbonitrile]"
100 to 1000 nM,< 100 nM,"N#Cc1ccc2c(c1)CC[C@H]2Oc1ccc2[nH]nc(-c3cnco3)c2n1 (single isomer, unassigned) [Example 31, enantiomer 2, 1-((3-(Oxazol-5-yl)-1H-pyrazolo[4,3-b]pyridin-5-yl)oxy)-2,3-dihydro-1H-indene-5-carbonitrile]"
< 100 nM,< 100 nM,"N#Cc1ccc2c(c1)CCC[C@@H]2Nc1cc2c(-c3cnco3)n[nH]c2cn1 (single isomer, unassigned) [Example 33, enantiomer 1, 5-((3-(Oxazol-5-yl)-1H-pyrazolo[3,4-c]pyridin-5-yl)amino)-5,6,7,8-tetrahydronaphthalene-2-carbonitrile]"
100 to 1000 nM,100 to 1000 nM,"N#Cc1ccc2c(c1)CCC[C@@H]2Nc1cc2c(-c3cnco3)n[nH]c2cn1 (single isomer, unassigned) [Example 33, enantiomer 2, 5-((3-(Oxazol-5-yl)-1H-pyrazolo[3,4-c]pyridin-5-yl)amino)-5,6,7,8-tetrahydronaphthalene-2-carbonitrile]"
